Experimental data reported in patent US11077115B2, “Rorgamma modulators and uses thereof” (Genfit, priority 2017, dated 2021).
Counter-ions that a name gives are not always drawn.

| melting point | SMILES |
| --- | --- |
| 215 °C | Cc1ccc(C(NC(=O)Cc2cnc(N3CCS(=O)(=O)CC3)nc2)c2ccc(Cl)cc2Cl)o1 (stereo not shown) (as salt: HCl) [Cpd. 50, N-[(2,4-dichlorophenyl)(5-methylfuran-2-yl)methyl]-2-[2-(1,1-dioxo-1-thiomorpholin-4-yl)pyrimidin-5-yl]acetamide] |
| 110 °C | Cc1ccc(C(NC(=O)Cc2ccc(N3CCS(=O)(=O)CC3)c(C)c2)c2ccc(C)o2)c(Br)c1 (stereo not shown) (as salt: HCl) [Cpd. 11, N-[(2-bromo-4-methylphenyl)(5-methylfuran-2-yl)methyl]-2-[4-(1,1-dioxo-1-thiomorpholin-4-yl)-3-methylphenyl]acetamide] |
| 224 °C | Cc1ccc(C(NC(=O)Cc2cnc(N3CCS(=O)(=O)CC3)nc2)c2ccc(C)o2)c(C(F)(F)F)c1 (stereo not shown) (as salt: HCl) [Cpd. 33, 2-[2-(1,1-dioxo-1-thiomorpholin-4-yl)pyrimidin-5-yl]-N-{[4-methyl-2-(trifluoromethyl)phenyl](5-methylfuran-2-yl)methyl}acetamide] |
| 103 °C | COc1ccc(C(NC(=O)Cc2ccc(N3CCS(=O)(=O)CC3)c(C)c2)c2ccc(C)o2)c(N2CC3CC3C2)c1 (stereo not shown) (as salt: HCl) [Cpd. 16, N-[(2-{3-azabicyclo[3.1.0]hexan-3-yl}-4-methoxyphenyl)(5-methylfuran-2-yl)methyl]-2-[4-(1,1-dioxo-1-thiomorpholin-4-yl)-3-methylphenyl]acetamide] |
| 98 °C | Cc1ccc(C(NC(=O)C2(c3cnc(N4CCS(=O)(=O)CC4)nc3)CC2)c2ccc(C)o2)c(Cl)c1 (stereo not shown) (as salt: HCl) [Cpd. 52, N-[(2-chloro-4-methylphenyl)(5-methylfuran-2-yl)methyl]-1-[2-(1,1-dioxo-1-thiomorpholin-4-yl)pyrimidin-5-yl]cyclopropane-1-carboxamide] |
| 90 °C | Cc1ccc(C(NC(=O)Cc2ccc(N3CCS(=O)(=O)CC3)cc2)c2ccc(C)o2)c(C(F)(F)F)c1 (stereo not shown) (as salt: HCl) [Cpd. 24, 2-[4-(1,1-dioxo-1-thiomorpholin-4-yl)phenyl]-N-{[4-methyl-2-(trifluoromethyl)phenyl](5-methylfuran-2-yl)methyl}acetamide] |
| 76 °C | Cc1ccc(C(NC(=O)C2(c3ccc(N4CCS(=O)(=O)CC4)cc3)CC2)c2ccc(Cl)o2)c(C)c1 (stereo not shown) (as salt: HCl) [Cpd. 66, N-[(5-chlorofuran-2-yl)(2,4-dimethylphenyl)methyl]-1-[4-(1,1-dioxo-1-thiomorpholin-4-yl)phenyl]cyclopropane-1-carboxamide] |
| 146 °C | Cc1ccc(C(NC(=O)Cc2ccc(O)c(N3CCS(=O)(=O)CC3)c2)c2ccc(C)o2)c(C)c1 (stereo not shown) (as salt: HCl) [Cpd. 43, N-[(2,4-dimethylphenyl)(5-methylfuran-2-yl)methyl]-2-[3-(1,1-dioxo-1-thiomorpholin-4-yl)-4-hydroxyphenyl]acetamide] |
| 75 °C | Cc1ccc(C(NC(=O)C2(c3ccc(N4CCS(=O)(=O)CC4)cc3)CC2)c2ccc(C)o2)c(C)c1 (stereo not shown) (as salt: HCl) [Cpd. 31, N-[(2,4-dimethylphenyl)(5-methylfuran-2-yl)methyl]-1-[4-(1,1-dioxo-1-thiomorpholin-4-yl)phenyl]cyclopropane-1-carboxamide] |
| 188 °C | Cc1ccc(N2CCS(=O)(=O)CC2)cc1CC(=O)NC(c1ccccc1)c1ccccc1N1CCCCC1 (stereo not shown) (as salt: HCl) [Cpd. 2, 2-[5-(1,1-dioxo-1-thiomorpholin-4-yl)-2-methylphenyl]-N-{phenyl[2-(piperidin-1-yl)phenyl]methyl}acetamide] |
| 96 °C | Cc1ccc(C(NC(=O)Cc2ccc(N3CCS(=O)(=O)CC3)cc2C)c2ccc(C)o2)c(N2CCCCC2)c1 (stereo not shown) (as salt: HCl) [Cpd. 18, 2-[4-(1,1-dioxo-1-thiomorpholin-4-yl)-2-methylphenyl]-N-{[4-methyl-2-(piperidin-1-yl)phenyl](5-methylfuran-2-yl)methyl}acetamide] |
| 91 °C | Cc1ccc(C(NC(=O)Cc2cnc(N3CCS(=O)(=O)CC3)nc2)c2ccc(C)o2)c(N2CCCCC2)c1 (stereo not shown) (as salt: HCl) [Cpd. 20, 2-[2-(1,1-dioxo-1-thiomorpholin-4-yl)pyrimidin-5-yl]-N-{[4-methyl-2-(piperidin-1-yl)phenyl](5-methylfuran-2-yl)methyl}acetamide] |
| 145 °C | Cc1ccc(C(NC(=O)C2(c3cnc(N4CCS(=O)(=O)CC4)nc3)CC2)c2ccc(Cl)cc2Cl)o1 (stereo not shown) (as salt: HCl) [Cpd. 54, N-[(2,4-dichlorophenyl)(5-methylfuran-2-yl)methyl]-1-[2-(1,1-dioxo-1-thiomorpholin-4-yl)pyrimidin-5-yl]cyclopropane-1-carboxamide] |
| 159 °C | Cc1ccc(N2CCCCC2)c(C(NC(=O)Cc2cnc(N3CCS(=O)(=O)CC3)nc2)c2ccc(C)o2)c1 (stereo not shown) (as salt: HCl) [Cpd. 17, 2-[2-(1,1-dioxo-1-thiomorpholin-4-yl)pyrimidin-5-yl]-N-{[5-methyl-2-(piperidin-1-yl)phenyl](5-methylfuran-2-yl)methyl}acetamide] |
| 82 °C | Cc1ccc(C(NC(=O)C2(c3cnc(N4CCS(=O)(=O)CC4)nc3)CC2)c2ccc(C)o2)c(C)c1 (stereo not shown) (as salt: HCl) [Cpd. 48, N-[(2,4-dimethylphenyl)(5-methylfuran-2-yl)methyl]-1-[2-(1,1-dioxo-1-thiomorpholin-4-yl)pyrimidin-5-yl]cyclopropane-1-carboxamide] |
| 104 °C | Cc1ccc(C(NC(=O)Cc2ccc(N3CCS(=O)(=O)CC3)cc2)c2ccccc2)c(N2CC3CC3C2)c1 (stereo not shown) (as salt: HCl) [Cpd. 22, N-[(2-{3-azabicyclo[3.1.0]hexan-3-yl}-4-methylphenyl)(phenyl)methyl]-2-[4-(1,1-dioxo-1-thiomorpholin-4-yl)phenyl]acetamide] |
| 61 °C | Cc1ccc(C(NC(=O)Cc2ccc(N3CCOCC3)nc2)c2ccc(C)o2)c(N2CCCCC2)c1 (stereo not shown) (as salt: HCl) [Cpd. 25, N-{[4-methyl-2-(piperidin-1-yl)phenyl](5-methylfuran-2-yl)methyl}-2-[6-(morpholin-4-yl)pyridin-3-yl]acetamide] |
| 87 °C | COCc1ccc(CC(=O)NC(c2ccc(C)o2)c2ccc(C)cc2N2CCCCC2)cc1N1CCS(=O)(=O)CC1 (stereo not shown) (as salt: HCl) [Cpd. 62, 2-[3-(1,1-dioxo-1-thiomorpholin-4-yl)-4-(methoxymethyl)phenyl]-N-{[4-methyl-2-(piperidin-1-yl)phenyl](5-methylfuran-2-yl)methyl}acetamide] |
| 98 °C | Cc1ccc(C(NC(=O)C2(c3ccc(N4CCS(=O)(=O)CC4)cc3)CC2)c2ccc(C)o2)c(N2CCCCC2)c1 (stereo not shown) (as salt: HCl) [Cpd. 32, 1-[4-(1,1-dioxo-1-thiomorpholin-4-yl)phenyl]-N-{[4-methyl-2-(piperidin-1-yl)phenyl](5-methylfuran-2-yl)methyl}cyclopropane-1-carboxamide] |
| 74 °C | Cc1ccc(C(NC(=O)C2(c3ccc(N4CCS(=O)(=O)CC4)c(C)n3)CC2)c2ccc(C)o2)c(C)c1 (stereo not shown) (as salt: HCl) [Cpd. 71, N-[(2,4-dimethylphenyl)(5-methylfuran-2-yl)methyl]-1-[5-(1,1-dioxo-1-thiomorpholin-4-yl)-6-methylpyridin-2-yl]cyclopropane-1-carboxamide] |
| 102 °C | Cc1ccc(C(NC(=O)Cc2ccc(N3CCS(=O)(=O)CC3)nc2)c2ccc(C)o2)c(N2CCCCC2)c1 (stereo not shown) (as salt: HCl) [Cpd. 27, 2-[6-(1,1-dioxo-1-thiomorpholin-4-yl)pyridin-3-yl]-N-{[4-methyl-2-(piperidin-1-yl)phenyl](5-methylfuran-2-yl)methyl}acetamide] |
| 178 °C | Cc1ccc(C(NC(=O)Cc2ccc(N3CCS(=O)(=O)CC3)cc2C)c2ccc(C)o2)c(C)c1 (stereo not shown) (as salt: HCl) [Cpd. 19, N-[(2,4-dimethylphenyl)(5-methylfuran-2-yl)methyl]-2-[4-(1,1-dioxo-1-thiomorpholin-4-yl)-2-methylphenyl]acetamide] |
| 207 °C | Cc1ccc(C(NC(=O)Cc2cc(N3CCS(=O)(=O)CC3)ccc2F)c2ccccc2)c(N2CCOCC2)c1 (stereo not shown) (as salt: HCl) [Cpd. 4, 2-[5-(1,1-dioxo-1-thiomorpholin-4-yl)-2-fluorophenyl]-N-{[4-methyl-2-(morpholin-4-yl)phenyl](phenyl)methyl}acetamide] |
| 99 °C | Cc1ccc(C(NC(=O)Cc2ccc(N3CCS(=O)(=O)CC3)c(C)c2)c2ccc(C)o2)c(C(F)(F)F)c1 (stereo not shown) (as salt: HCl) [Cpd. 10, 2-[4-(1,1-dioxo-1-thiomorpholin-4-yl)-3-methylphenyl]-N-{[4-methyl-2-(trifluoromethyl)phenyl](5-methylfuran-2-yl)methyl}acetamide] |
| 211 °C | Cc1ccc(C(NC(=O)Cc2cnc(N3CCS(=O)(=O)CC3)nc2C)c2ccc(C)o2)c(C)c1 (stereo not shown) (as salt: HCl) [Cpd. 42, N-[(2,4-dimethylphenyl)(5-methylfuran-2-yl)methyl]-2-[2-(1,1-dioxo-1-thiomorpholin-4-yl)-4-methylpyrimidin-5-yl]acetamide] |
| 88 °C | COc1ccc(CC(=O)NC(c2ccc(C)o2)c2ccc(C)cc2N2CCCCC2)cc1N1CCS(=O)(=O)CC1 (stereo not shown) (as salt: HCl) [Cpd. 30, 2-[3-(1,1-dioxo-1-thiomorpholin-4-yl)-4-methoxyphenyl]-N-{[4-methyl-2-(piperidin-1-yl)phenyl](5-methylfuran-2-yl)methyl}acetamide] |
| 71 °C | Cc1ccc(C(NC(=O)C2(c3ccc(N4CCS(=O)(=O)CC4)cn3)CC2)c2ccc(C)o2)c(C)c1 (stereo not shown) (as salt: HCl) [Cpd. 73, N-[(2,4-dimethylphenyl)(5-methylfuran-2-yl)methyl]-1-[5-(1,1-dioxo-1-thiomorpholin-4-yl)pyridin-2-yl]cyclopropane-1-carboxamide] |
| 142 °C | Cc1ccc(C(NC(=O)Cc2ccc(N3CCS(=O)(=O)CC3)cc2)c2ccccc2)c(Br)c1 (stereo not shown) (as salt: HCl) [Cpd. 9, N-[(2-bromo-4-methylphenyl)(phenyl)methyl]-2-[4-(1,1-dioxo-1-thiomorpholin-4-yl)phenyl]acetamide] |
